According to patent US20040265350A1, “Use of a porous carrier” (priority 2000, published 2004):
Entries after “also recorded” stand apart in the source; their conditions may differ.

Tests used:
[1] = system: human osteosarcoma like cells(HOS); test: MTT assay of cell proliferation, HOS cells; assay type: cell-based
Excerpt: (§1) Two osteosarcoma cell lines and primary human osteoblasts were used in the cell culture studies of the effect of increased MTX concentration and duration time. The MG63 cells were obtained from a […] (ATCC-CRL-1427). The human osteosarcoma like cells(HOS) cells were obtained from a […] (ATCC-CRL-1543). The human osteoblast like cells(HOB) were isolated from patients undergoing total knee replacement. The cell lines were each cultured in complete Dulbecco's Modified Eagle's Medium (DMEM) (Gibco, UK) supplemented with 10% foetal calf serum (FCS) (Gibco, UK), non essential amino acids (1%), ascorbic acid (150˜g/ml), L glutamine (0.02M), HEPES (0.01M), penicillin (100 units/ml) and streptomycin (100˜g/ml), at 37° C. and 5% CO2 in a 99% humidified sterile atmosphere. The medium was changed at least twice a week to prevent nutrient depletion-and waste product accumulation.
(§2) Once the cells had become confluent, they were removed by emptying the medium, washing with 10 ml PBS and adding 5 ml of 0.25% Trypsin and incubating at 37° C. […] Next the cells were counted under a light microscope and concentrations of 13.2×10^4 cells/ml made up. […]
(§3) The effects of MTX on the proliferation of ostersarcoma cells was measured by MTT assay. […] The absorbance of each well was then read by a Dynatech microplate reader (BioRad Model 3550) at a wavelength of 595 nm and 5 sec mixing time. […]

MG63 cells = test: MTT assay of cell proliferation, MG63 cells; assay type: cell-based, human
Excerpt: as §1, §2, §3

[2] = system: human osteoblast like cells(HOB); test: MTT assay of cell proliferation, HOB cells; assay type: cell-based
Excerpt: as §1, §2, §3

[3] = Leaching of MTX from HA discs with or without PLG; assay type: physicochemical
Procedure: Initially the release of MTX from HA using the polymer PLG (75:25) was performed to establish whether this polymer {which is expected to degrade at a slower rate than PLG (50:50)} induced a slowed rate of release of MTX. HA discs from the second batch were used for the experiment and approximately the same quantities of MTX, PLG and acetonitrile were used. The experiment was labelled as follows; IA and IB were loaded by centrifugation and IB contains polymer, IC and ID were loaded by the vacuum technique and ID contains polymer. The following results-were obtained [formula]

osteoblast cells = conditions: 5 mM MTX; cited from earlier work
osteosarcoma cells = conditions: 5 mM MTX; cited from earlier work
[4] = Leaching of Prednisolone from HA discs with or without PLG; assay type: physicochemical; conditions: presence of PLG (50:50)
Procedure: Serial dilution experiments were performed to obtain the following calibration chart and equation for Prednisolone. [formula]
Four HA discs from the second batch were used for these experiments. Approximately […] of Prednisolone was used in each of the acetonitrile solutions. The experiments were labelled 1AA, 1BB, 1CC and 1DD. 1M and 1BB were loaded by centrifugation and 1BB contained 0.1 g of PLG (50:50). 1CC and 1DD were loaded using the vacuum technique and 1DD contained 0.1 g of PLG (50:50). The standard leaching experiments were carried out and the results presented below. [formula]

[5] = Solubility seen while preparing loading solutions; assay type: physicochemical
Excerpt: After drying the block in an oven overnight the vacuum method was again used to inject a solution of PLG (85:15) (0.105 g) in acetonitrile (50 cm^3). Again the block was oven dried overnight.

[6] = Leaching of cis-platin from HA block into distilled water, absorbance at 206 nm; assay type: physicochemical
Procedure: No yellow colour was observed within the block.
Leaching experiments were carried out in distilled water (35 cm^3) with stirring, in the absence of light and closed to prevent evaporation. Absorbance was recorded at λ 206 nm at appropriate intervals and all caclulations required the extinction coefficient 3057 mol^−1 dm^3 cm^−1. [formula]

[7] = Leaching of [Fe(phen)3][ClO4]2 from HA blocks into distilled water, UV-Vis at 512 nm; assay type: physicochemical
Excerpt: Leaching with stirring of solutions to avoid inaccuracies due to concentration gradients. (According to present arrangements however some anomalies may result from occasional jarring of the block by the magnetic follower).
Half of the block prepared in method 3 was immersed in distilled water (30 cm3) and the absorbance recorded by UV-Vis spectrometry at wavelength 512 nm. An extinction coefficient of 10,620 mol^−1 dm^3 cm^−1 was used in all calculations.
Vacuum method 3 was used for loading the compounds onto HA, again blocks of porosity 83.35% (0006) were used with approximate dimensions, 20×20×15mm, weight 3.6-3.8 g. […] […] Again the blocks were dried in the oven. (In order to fully dissolve the polymer in acetronitrile stirring for up to 1 hour is required before loading).
All leaching experiments were undertaken using the cut halves of the loaded blocks with distilled water (30 cm3) and constant stirring. […] This buoyancy is likely to be due to the polymer blocking pores in the HA trapping air inside the block. […] Again absorbance at λ 512 nm was recorded at appropriate intervals. [formula]

[8] = 1 day exposure, MTX 0.1 to 1000 μg/ml
[9] = 3 day exposure, same concentrations
[10] = block loaded with complex and PLG (50:50)

With CN(Cc1cnc2nc(N)nc(N)c2n1)c1ccc(C(=O)N[C@@H](CCC(=O)O)C(=O)O)cc1 [MTX, Methotrexate] the “cell proliferation (MTT)” value [1, 8] was “only a small decrease in proliferation”, the “cell proliferation (MTT)” value [1, 9] was “reduced level of cell proliferation compared with the 1 day exposure samples” and the “cell proliferation (MTT)” value (MG63 cells; MG63, 1 day exposure, MTX 0.1 to 1000 μg/ml) was “decrease in proliferation as MTX concentration rose”. For the same compound, the “cell proliferation (MTT)” value (MG63 cells; MG63, 3 day exposure, rising MTX concentration) was “erratic behaviour; also recorded: affected only slightly”, the “cell proliferation (MTT)” value [2, 8] was “decrease in proliferation as MTX concentration rose” and the “cell proliferation (MTT)” value [2, 9] was “reduced level of cell proliferation compared with the 1 day exposure samples; also recorded: affected to a similar degree to the HOS cells”. For the same compound, the “effect of PLG (50:50) on release of MTX from HA” value ([3]; presence of PLG (50:50), weighted discs) was “slower release rate”, the “effect of PLG (75:25) on release of MTX from HA” value ([3]; presence of PLG (75:25)) was “does slow the release” and the “decrease in proliferation of osteoblast cells” value (osteoblast cells) was 30%. For the same compound, the “decrease in proliferation of osteosarcoma cells” value (osteosarcoma cells) was 90%.
With C[C@]12C=CC(=O)C=C1CC[C@@H]1[C@@H]2[C@@H](O)C[C@@]2(C)[C@H]1CC[C@]2(O)C(=O)CO [Prednisolone] the “effect of polymer on release of Prednisolone from HA” value [4] was “slowed” and the solubility in acetonitrile ([5]; acetonitrile) was “dissolves”.
For N.N.[Cl][Pt][Cl] [cis-platin], the “time after which almost the entire drug / the majority is released from HA” value ([6]; no polymer, distilled water, stirring, dark) was 45 min and the “effect of PLG on release of cis-platin from HA” value ([6]; presence of PLG (50:50)) was “slowed”.
For “Iron(II) Tris Phenanthrolin Perchlorate [[Fe(phen)3][ClO4]2]”, the “time after which almost all complex is released from the block” value ([7]; block loaded by vacuum method 3 from methanol, no polymer, distilled water, stirring) was 170 min, the “effect of PLG impregnation on release of complex” value [7, 10] was “dramatically slows the release” and the “time at which continuing release of complex is still observed” value [7, 10] was > 5 days. For the same compound, the “effect of PLG impregnation on release of complex” value ([7]; block loaded with complex and PLG (50:50), listed as Iron Tris Phen) was “significantly slows the release”, the “time after which approximately all / the majority of complex is released” value ([7]; control block loaded from acetonitrile, no PLG) was 300 min and the “further quantity released after solution replaced with distilled water” value ([7]; method 3 block, replaced after 330 minutes, read after a further 20 hours) was 0.14 mg. The “release profile of complex from the block” value ([7]; no polymer) was “two phases; also recorded: initial burst”.
In the case of Poly(DL-Lactide-co-Glycolide) [PLG], the solubility in methanol [5] is reported as “not soluble” and the solubility in water [5] is reported as “not soluble”.
